pIC50, pKi: −log10 of the molar value.
Assays:
A549 [1] = assay: Antiproliferative activity against human A549 cells assessed as inhibition of cell growth at 10 uM measured after 24 hrs by CCK8 assay relative to control; type: functional; conditions: A549, 24 h, read-out: GI
A549 [2] = assay: Antiproliferative activity against human A549 cells measured after 24 hrs by CCK8 assay; type: functional, cell-based; conditions: A549, 24 h
MCF7 [3] = assay: Antiproliferative activity against human MCF7 cells assessed as inhibition of cell growth at 10 uM measured after 24 hrs by CCK8 assay relative to control; type: functional; conditions: MCF7, 24 h, read-out: GI
MCF7 [4] = assay: Antiproliferative activity against human MCF7 cells measured after 24 hrs by CCK8 assay; type: functional, cell-based; conditions: MCF7, 24 h
HCT-116 [5] = assay: Antiproliferative activity against human HCT116 cells assessed as inhibition of cell growth at 10 uM measured after 24 hrs by CCK8 assay relative to control; type: functional; conditions: HCT-116, 24 h, read-out: GI
HCT-116 [6] = assay: Antiproliferative activity against human HCT116 cells measured after 24 hrs by CCK8 assay; type: functional, cell-based; conditions: HCT-116, 24 h
[7] = target: E3 ubiquitin-protein ligase Mdm2 (Homo sapiens, UniProt Q00987); assay: Inhibition of PMDM6-F probe binding to MDM2 (1 to 118 residues) (unknown origin) preincubated for 30 mins followed by PMDM6-F addition and measured after 1 hr fluorescence polarization assay
Sequence of E3 ubiquitin-protein ligase Mdm2 (Q00987 whole entry, the tested form may be a part): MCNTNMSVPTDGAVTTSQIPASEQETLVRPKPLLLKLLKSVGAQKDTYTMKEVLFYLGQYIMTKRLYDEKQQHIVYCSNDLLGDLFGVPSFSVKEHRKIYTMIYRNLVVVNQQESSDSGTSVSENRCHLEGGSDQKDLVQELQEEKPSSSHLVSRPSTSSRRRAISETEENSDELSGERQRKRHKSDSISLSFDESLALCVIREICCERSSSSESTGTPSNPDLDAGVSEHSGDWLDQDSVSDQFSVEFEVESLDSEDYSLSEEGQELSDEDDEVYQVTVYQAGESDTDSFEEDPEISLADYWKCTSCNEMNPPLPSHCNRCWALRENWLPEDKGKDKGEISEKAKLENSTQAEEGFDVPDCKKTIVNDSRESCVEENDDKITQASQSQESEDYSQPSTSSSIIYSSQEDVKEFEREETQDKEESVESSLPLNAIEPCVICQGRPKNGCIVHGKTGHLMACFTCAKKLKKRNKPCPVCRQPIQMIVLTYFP

A549 [8] = assay: Cell cycle arrest in human A549 cells assessed as increase in accumulation at G0/G1-phase measured after 24 hrs by DNA-staining solution based flow cytometry; type: functional
A549 [9] = assay: Cell cycle arrest in human A549 cells assessed as decrease in accumulation at S-phase measured after 24 hrs by DNA-staining solution based flow cytometry; type: functional
A549 [10] = assay: cells; conditions: Homo sapiens, A549, 48 h, read-out: Activity
Description: Induction of apoptosis in human A549 cells assessed as viable cells at 5 uM measured after 48 hrs by annexin V-FITC/propidium iodide staining based flow cytometry (Rvb = 92.9%)

A549 [11] = assay: cells; conditions: Homo sapiens, A549, 48 h, read-out: Activity; remark: listed apart in the source
Description: Induction of apoptosis in human A549 cells assessed as viable cells at 10 uM measured after 48 hrs by annexin V-FITC/propidium iodide staining based flow cytometry (Rvb = 92.9%)

HUVEC = assay: Cytotoxicity against HUVEC measured after 24 hrs by CCK8 assay; type: cell-based; conditions: Homo sapiens
A549 [12] = assay: Cell cycle arrest in human A549 cells assessed as decrease in accumulation at G2/M-phase measured after 24 hrs by DNA-staining solution based flow cytometry; type: functional

`O=C(C1=CC[C@@H](c2ccccc2)[C@@]2(S1)C(=O)Nc1cc(Br)ccc12)c1ccccc1` gave an inhibition of growth at 10 µM (A549 [1]) of 67.6%, a pIC50 (A549 [2]) of 5.32 and an inhibition of growth at 10 µM (MCF7 [3]) of 54.5%. The pIC50 (MCF7 [4]) was 5.00, the inhibition of growth at 10 µM (HCT-116 [5]) was 80% and the pIC50 (HCT-116 [6]) was 5.02.
Work on `O=C(C1=CC[C@@H](c2ccc(Br)cc2)[C@@]2(S1)C(=O)Nc1cccc(Br)c12)c1ccccc1` yielded an inhibition of growth at 10 µM (A549 [1]) of 88.1%, a pIC50 (A549 [2]) of 5.82 and an inhibition of growth at 10 µM (MCF7 [3]) of 52.7%. For the same molecule, the pIC50 (MCF7 [4]) was 5.06, the inhibition of growth at 10 µM (HCT-116 [5]) was 86% and the pIC50 (HCT-116 [6]) was 5.23.
In the case of `O=C(C1=CC[C@@H](c2ccccc2)[C@@]2(S1)C(=O)Nc1cccc(Br)c12)c1ccco1`, the inhibition of growth at 10 µM (A549 [1]) was 87.1%, the pIC50 (A549 [2]) was 5.35 and the inhibition of growth at 10 µM (MCF7 [3]) was 92.8%. For the same molecule, the pIC50 (MCF7 [4]) was 5.32, the inhibition of growth at 10 µM (HCT-116 [5]) was 92.1% and the pIC50 (HCT-116 [6]) was 5.72. The pKi [7] was 4.36.
`COc1ccc(C(=O)C2=CC[C@@H](c3ccc([N+](=O)[O-])cc3)[C@@]3(S2)C(=O)Nc2cccc(Br)c23)cc1` showed an inhibition of growth at 10 µM (A549 [1]) of 73.9%, a pIC50 (A549 [2]) of 4.86 and an inhibition of growth at 10 µM (MCF7 [3]) of 28.1%. It also gave an inhibition of growth at 10 µM (HCT-116 [5]) of 48.1%.
Molecule `COc1ccc(C(=O)C2=CC[C@@H](c3ccc(OC)cc3)[C@@]3(S2)C(=O)Nc2cccc(Br)c23)cc1` has an inhibition of growth at 10 µM (A549 [1]) of 40.9%, an inhibition of growth at 10 µM (MCF7 [3]) of 25.9% and an inhibition of growth at 10 µM (HCT-116 [5]) of 14.3%.
In the case of `O=C(C1=CC[C@@H](c2ccccc2)[C@@]2(S1)C(=O)Nc1ccccc12)c1ccccc1`, the inhibition of growth at 10 µM (A549 [1]) was 57.6%, the pIC50 (A549 [2]) was 5.20 and the inhibition of growth at 10 µM (MCF7 [3]) was 51.7%. It also gave a pIC50 (MCF7 [4]) of 4.97, an inhibition of growth at 10 µM (HCT-116 [5]) of 87.6% and a pIC50 (HCT-116 [6]) of 5.03.
`O=C(C1=CC[C@@H](c2ccccc2)[C@@]2(S1)C(=O)Nc1ccc(F)cc12)c1ccccc1` showed an inhibition of growth at 10 µM (A549 [1]) of 74.2%, a pIC50 (A549 [2]) of 5.37 and an inhibition of growth at 10 µM (MCF7 [3]) of 63.9%. For the same molecule, the pIC50 (MCF7 [4]) was 5.26, the inhibition of growth at 10 µM (HCT-116 [5]) was 88.4% and the pIC50 (HCT-116 [6]) was 5.00.
In the case of `COc1ccc(C2=N[C@H](c3ccc(Cl)cc3)[C@H](c3ccc(Cl)cc3)N2C(=O)N2CCNC(=O)C2)c(OC(C)C)c1`, the inhibition of growth at 10 µM (A549 [1]) was 47%, the pIC50 (A549 [2]) was 5.62 and the inhibition of growth at 10 µM (MCF7 [3]) was 32.8%. For the same molecule, the pIC50 (MCF7 [4]) was 4.92, the inhibition of growth at 10 µM (HCT-116 [5]) was 64.4% and the Activity (A549 [8]) was “Dose-dependent effect”. For the same molecule, the Activity (A549 [9]) was “Dose-dependent effect”, the viability at 5 µM (A549 [10]) was 45.9% and the viability at 10 µM (A549 [11]) was 44.1%.
Molecule `O=C(C1=CC[C@@H](c2ccccc2)[C@@]2(S1)C(=O)Nc1cccc(Br)c12)c1ccc(Br)cc1` has an inhibition of growth at 10 µM (A549 [1]) of 93.1%, a pIC50 (A549 [2]) of 5.48 and an inhibition of growth at 10 µM (MCF7 [3]) of 77.7%. It also gave a pIC50 (MCF7 [4]) of 5.09, an inhibition of growth at 10 µM (HCT-116 [5]) of 67.3% and a pIC50 (HCT-116 [6]) of 5.59.
In the case of `CCC[C@@H]1CC=C(C(=O)c2ccc(OC)cc2)S[C@@]12C(=O)Nc1cccc(Br)c12`, the inhibition of growth at 10 µM (A549 [1]) was 44%, the inhibition of growth at 10 µM (MCF7 [3]) was 19.8% and the inhibition of growth at 10 µM (HCT-116 [5]) was 22.7%.
Work on `CC[C@@H]1CC=C(C(=O)c2ccc(OC)cc2)S[C@@]12C(=O)Nc1cccc(Br)c12` yielded an inhibition of growth at 10 µM (A549 [1]) of 46.9%, a pIC50 (A549 [2]) of 4.99 and an inhibition of growth at 10 µM (MCF7 [3]) of 72.9%. For the same molecule, the pIC50 (MCF7 [4]) was 4.88 and the inhibition of growth at 10 µM (HCT-116 [5]) was 70.8%.
Molecule `O=C(C1=CC[C@@H](c2ccc(F)cc2)[C@@]2(S1)C(=O)Nc1ccccc12)c1ccccc1` has an inhibition of growth at 10 µM (A549 [1]) of 72.3%, a pIC50 (A549 [2]) of 5.20 and an inhibition of growth at 10 µM (MCF7 [3]) of 58.8%. For the same molecule, the pIC50 (MCF7 [4]) was 4.85, the inhibition of growth at 10 µM (HCT-116 [5]) was 91.1% and the pIC50 (HCT-116 [6]) was 5.70.
In the case of `O=C(C1=CC[C@@H](c2ccccc2)[C@@]2(S1)C(=O)Nc1cc(F)ccc12)c1ccccc1`, the inhibition of growth at 10 µM (A549 [1]) was 66%, the pIC50 (A549 [2]) was 5.21 and the inhibition of growth at 10 µM (MCF7 [3]) was 23.9%. For the same molecule, the inhibition of growth at 10 µM (HCT-116 [5]) was 45.1%.
`COc1ccc(C(=O)C2=CC[C@@H](c3ccccc3)[C@@]3(S2)C(=O)Nc2cccc(Br)c23)cc1` was tested, and the inhibition of growth at 10 µM (A549 [1]) was 74.3%, the pIC50 (A549 [2]) was 5.22 and the inhibition of growth at 10 µM (MCF7 [3]) was 36.9%. It also gave an inhibition of growth at 10 µM (HCT-116 [5]) of 68.4% and a pIC50 (HCT-116 [6]) of 5.08.
For `O=C(C1=CC[C@@H](c2ccc(F)cc2)[C@@]2(S1)C(=O)Nc1cccc(Br)c12)c1ccccc1`, the inhibition of growth at 10 µM (A549 [1]) was 84.4%, the pIC50 (A549 [2]) was 5.31 and the inhibition of growth at 10 µM (MCF7 [3]) was 21.9%. For the same molecule, the inhibition of growth at 10 µM (HCT-116 [5]) was 44.1%.
`COc1ccc(C(=O)C2=CC[C@@H](c3ccc(Br)cc3)[C@@]3(S2)C(=O)Nc2cccc(Br)c23)cc1` gave an inhibition of growth at 10 µM (A549 [1]) of 19%, an inhibition of growth at 10 µM (MCF7 [3]) of 18.5% and an inhibition of growth at 10 µM (HCT-116 [5]) of 10.8%.
For `O=C(C1=CC[C@@H](c2ccc(Br)cc2)[C@@]2(S1)C(=O)Nc1ccccc12)c1ccccc1`, the inhibition of growth at 10 µM (A549 [1]) was 75.1%, the pIC50 (A549 [2]) was 5.68 and the inhibition of growth at 10 µM (MCF7 [3]) was 69.4%. For the same molecule, the pIC50 (MCF7 [4]) was 5.17, the inhibition of growth at 10 µM (HCT-116 [5]) was 91.9% and the pIC50 (HCT-116 [6]) was 5.77. For the same molecule, the pIC50 (HUVEC) was 5.39, the pKi [7] was 4.70 and the Activity (A549 [8]) was “Dose-dependent effect”. The Activity (A549 [9]) was “Dose-dependent effect”, the Activity (A549 [12]) was “Dose-dependent effect” and the viability at 5 µM (A549 [10]) was 35.7%. It also gave a viability at 10 µM (A549 [11]) of 29%.
`O=C(C1=CC[C@@H](c2ccc(Cl)cc2)[C@@]2(S1)C(=O)Nc1ccccc12)c1ccccc1` was tested, and the inhibition of growth at 10 µM (A549 [1]) was 72.5%, the pIC50 (A549 [2]) was 5.41 and the inhibition of growth at 10 µM (MCF7 [3]) was 72.5%. The pIC50 (MCF7 [4]) was 5.07, the inhibition of growth at 10 µM (HCT-116 [5]) was 89.1% and the pIC50 (HCT-116 [6]) was 5.55.
`O=C(C1=CC[C@@H](c2ccccc2)[C@@]2(S1)C(=O)Nc1cccc(Cl)c12)c1ccccc1` was tested, and the inhibition of growth at 10 µM (A549 [1]) was 65.4%, the pIC50 (A549 [2]) was 5.00 and the inhibition of growth at 10 µM (MCF7 [3]) was 43.9%. For the same molecule, the inhibition of growth at 10 µM (HCT-116 [5]) was 48.8% and the pIC50 (HCT-116 [6]) was 5.00.
For `O=C(C1=CC[C@@H](c2ccccc2)[C@@]2(S1)C(=O)Nc1cccc(Br)c12)c1ccccc1`, the inhibition of growth at 10 µM (A549 [1]) was 78.5%, the pIC50 (A549 [2]) was 5.51 and the inhibition of growth at 10 µM (MCF7 [3]) was 24.3%. For the same molecule, the inhibition of growth at 10 µM (HCT-116 [5]) was 45%.
